From patent US5972890A, “Synthetic peptides for arterial imaging” (New England Deaconess Hospital Corporation, priority 1995, dated 1999)
Ends that are not written are not given here.

Tested on: anti-SP-4 antiserum
Test: ELISA immunological cross-reactivity with anti-SP-4 antiserum
Format: binding
Details: ELISA plates coated with peptide or LDL, rabbit polyclonal anti-SP-4 antiserum
Description: To produce anti-synthetic peptide antisera, purified synthetic peptide was dissolved in PBS, pH 7.4 at a concentration of 1 mg/ml. The peptide solution was mixed with an equal volume of complete Freund's adjuvant and vortexed thoroughly until a thick emulsion was produced. New Zealand White rabbits (Millbrook Farms, Amherst, Mass.) were injected with a total of 0.5 mg synthetic peptide administered subcutaneously in the four dorsal quadrants. The rabbits were given a boost (injected at the same sites) with 0.5 mg peptide emulsified in incomplete Freund's adjuvant 2-3 weeks later. Eight to ten days after the first boost, the animals were given a second, identical boost and were bled of 30 ml 8 to 10 days later.
To test for immunological cross-reactivity microtiter plates (Immulon II Dynatech Labs, Chantilly, Va.) were coated with the purified synthetic peptide or LDL by an overnight incubation at 4° C. with 100 ng peptide per well in 50 mM carbonate, pH 9.6, and blocked for nonspecific binding with an additional overnight incubation with phosphate-buffered saline, pH 7.4 (PBS), 1% bovine serum albumin (BSA). Control wells were coated with BSA alone. After washing twice with PBS, the wells were filled with serial dilutions (1:10 to 1:100,000 made in PBS, 3% BSA) of a rabbit polyclonal antibody generated against the synthetic peptide(s) and incubated for 45 minutes at room temperature. Following thorough washing (3× with PBS, 0.1% BSA), the wells were filled with a 1:2000 dilution of goat anti-rabbit IgG-horseradish peroxidase conjugate (Atlantic Antibodies, Scarborough, Me.). After a final wash, the wells were filled with 3,3'-5,5'-tetramethybenzidine (TMB) microwell peroxidase substrate (Kirkegaard and Perry Labs, Gaithersburg, Md.) and read at 650 nm every two minutes on an ELISA-5 automated plate reader (Physica, New York, N.Y.). Results (see, e.g., FIGS. 4 and 5) are expressed as the initial velocity of substrate conversion (change in OD650 /hr), which is determined by a linear regression of 15 data points per well. Each data point represents the average of three measured data points from the same plate, run at the same time.

Q: With “Ac-YKLALEAARLLADAEGAK-NH2 [SP-6A, CH3 CONH-Tyr-Lys-Leu-Ala-Leu-Glu-Ala-Ala-Arg-Leu-Leu-Ala-Asp-Ala-Glu-Gly-Ala-Lys-CONH2]” as the substance, how does the “binding of anti-SP-4 antiserum to coated peptide or LDL” value (“binding of anti-SP-4 antiserum” below) read?
A: The value was “bind”.

Q: With “Ac-YKLALEAARLLANAEGAK-NH2 [SP-8A, CH3 CONH-Tyr-Lys-Leu-Ala-Leu-Glu-Ala-Ala-Arg-Leu-Leu-Ala-Asn-Ala-Glu-Gly-Ala-Lys-CONH2]” as the substance, how does the “binding of anti-SP-4 antiserum” value read?
A: Its value is “bind”.

Q: With “Ac-YRALVDTLK-NH2 [SP-14A, CH3 CONH-Tyr-Arg-Ala-Leu-Val-Asp-Thr-Leu-Lys-CONH2]” as the substance, how does the “binding of anti-SP-4 antiserum” value read?
A: The value was “bind”.

Q: Which “binding of anti-SP-4 antiserum” value does the source give for “Ac-YRALVDTLKFVTQAEGAK-NH2 [SP-4A, CH3 CONH-Tyr-Arg-Ala-Leu-Val-Asp-Thr-Leu-Lys-Phe-Val-Thr-Gln-Ala-Glu-Gly-Ala-Lys-CONH2]” here?
A: The value was “bind”.

Q: Which “binding of anti-SP-4 antiserum” value does the source give for “Ac-YRALVDYLKFVTQL-NH2 [SP-12A, CH3 CONH-Tyr-Arg-Ala-Leu-Val-Asp-Tyr-Leu-Lys-Phe-Val-Thr-Gln-Leu-CONH2]” here?
A: The value was “bind”.

Q: With “YKLALEAARLLADAEGAK-NH2 [SP-6, H2 N-Tyr-Lys-Leu-Ala-Leu-Glu-Ala-Ala-Arg-Leu-Leu-Ala-Asp-Ala-Glu-Gly-Ala-Lys- CONH2]” as the substance, how does the “binding of anti-SP-4 antiserum” value read?
A: Its value is “bind”.

Q: For “YKLALEAARLLANAEGAK-NH2 [SP-8, H2 N-Tyr-Lys-Leu-Ala-Leu-Glu-Ala-Ala-Arg-Leu-Leu-Ala-Asn-Ala-Glu-Gly-Ala-Lys- CONH2]”, which “binding of anti-SP-4 antiserum” value is on record?
A: Its value is “bind”.

Q: With “YRALVDTLKFVTQAEGAK-NH2 [SP-4, NH2 -Tyr-Arg-Ala-Leu-Val-Asp-Thr-Leu-Lys-Phe-Val-Thr-Gln-Ala-Glu-Gly-Ala-Lys-CONH2]” as the substance, how does the “binding of anti-SP-4 antiserum” value read?
A: The value was “bind”.

Tested on: not listed separately
Test: Plasma decay of 125I-labelled synthetic peptide after ear vein injection
Format: in vivo, rabbit
Details: at four hours
Description: Each labelled synthetic peptide preparation (containing, for example, 150 to 400 or more μCi of ^125 I-labelled peptide) in column elution buffer was injected into the marginal ear vein of the ballooned and healing New Zealand white rabbits or WHHL rabbits. Serial blood samples were obtained from the opposite ear during the ensuing 0-24 hours and were analyzed for radioactivity. The labelled peptide concentrations in the blood samples that were withdrawn over the first 10 minutes after injection were extrapolated to zero time to determine the time zero radioactivity in the calculation of average plasma radioactivity. […] Peptides SP15a, SP17, SP19a, SP21a, SP28, SP34a, and SP30 were cleared rapidly from the plasma with half-lives of about one minute or less; after one hour, the plasma levels were less than 10% of the injected dose and fell by an additional 1% over the next three hours. Peptides SP15a, SP17, SP21a, SP28, SP34a, and SP30 leveled off to a plasma level of 3-6%; peptide SP19a cleared more quickly and leveled off to a concentration of 0.3% (at four hours).

Q: For “Ac-YRALVDTLKFVTEQAKGA-NH2 [SP-19a, CH3 CONH-Tyr-Arg-Ala-Leu-Val-Asp-Thr-Leu-Lys-Phe-Val-Thr-Glu-Gln-Ala-Lys-Gly-Ala-CONH2]”, which “plasma concentration at which peptide leveled off” value is on record?
A: The value was 0.3%.

Same assay, conditions: from one hour to four hours after injection

Q: For “Ac-YAKFRETLEDTRDRMY-NH2 [SP-15a, CH3 CONH-Tyr-Ala-Lys-Phe-Arg-Glu-Thr-Leu-Glu-Asp-Thr-Arg-Asp-Arg-Met-Tyr-CONH2]”, which “additional fall of plasma level over the next three hours” value is on record?
A: The value was 1%.

Q: Which “additional fall of plasma level over the next three hours” value does the source give for “Ac-YRALVDTEFKVKQEAGAK-NH2 [SP-21a, CH3 CONH-Tyr-Arg-Ala-Leu-Val-Asp-Thr-Glu-Phe-Lys-Val-Lys-Gln-Glu-Ala-Gly-Ala-Lys-CONH2]” here?
A: Its value is 1%.

Q: For “Ac-YRALVDTLKFVTEQAKGA-NH2 [SP-19a, CH3 CONH-Tyr-Arg-Ala-Leu-Val-Asp-Thr-Leu-Lys-Phe-Val-Thr-Glu-Gln-Ala-Lys-Gly-Ala-CONH2]”, which “additional fall of plasma level over the next three hours” value is on record?
A: The value was 1%.

Q: Which “additional fall of plasma level over the next three hours” value does the source give for Ac-YVLDEFREKLNEELEALKQK-NH2 [SP-34a] here?
A: The value was 1%.

Q: For “YAALDLNAVANKIADFEL-NH2 [SP-17, H2 N-Tyr-Ala-Ala-Leu-Asp-Leu-Asn-Ala-Val-Ala-Asn-Lys-Ile-Ala-Asp-Phe-Glu-Leu- CONH2]”, which “additional fall of plasma level over the next three hours” value is on record?
A: Its value is 1%.

Q: With “YVGVAPGVGVAPGVGVAPG [SP-28, H2 N-Tyr-Val-Gly-Val-Ala-Pro-Gly-Val-Gly-Val-Ala-Pro-Gly-Val-Gly-Val-Ala-Pro- Gly-OH]” as the substance, how does the “additional fall of plasma level over the next three hours” value read?
A: The value was 1%.

Q: With “YVPGVGVPGVGVPGVGVPGVG-NH2 [SP-30, H2 N-Tyr-Val-Pro-Gly-Val-Gly-Val-Pro-Gly-Val-Gly-Val-Pro-Gly-Val-Gly-Val-Pro- Gly-Val-Gly-CONH2]” as the substance, how does the “additional fall of plasma level over the next three hours” value read?
A: Its value is 1%.
